What was measured:
[1] = molecular target: wt GPR55 (Gα13 mutant Q373D) (Homo sapiens, UniProt Q9Y2T6); assay: BRET² G protein dissociation assay, wt GPR55 with Gα13-Q373D; assay type: cell-based; conditions: for BRET2 response, Mean (plotted, Fig. S4): GPR55-wt-G13-Q373D
Experimental: (§1) Next, we used a mutagenesis approach to further explore the Gα13 selectivity of GPR55. The striking difference in the sequence between the two G protein subtypes guided the design of four Gα13 mutants that are in close contact with GPR55 by replacing the residues with the respective Gα12 amino acid (L374^-4I, Q373^-5D, H368^-10Q, R331D). The mutants were tested individually for their ability to be activated by GPR55 using the same G protein dissociation assay. […] The single Gα13-mutants affected the potency of LPI and ML184 only to a minor extend compared to wt Gα13 (Supplementary Table S3).
(§2) G protein dissociation assays were performed according to the original protocols of the TRUPATH BRET² assay[47],[87] but with subtle modifications as previously described[61],[88],[89]. All reagents and cells were obtained from Thermo Fisher Scientific unless indicated otherwise. The coding sequences for the G protein biosensors[47] (Gα12-Rluc8, Gα13-Rluc8, wt Gβ3, and Gγ9-GFP), the wt GPR55, the construct used for cryo-EM (with GFP bearing a G67A mutation to disrupt fluorescence properties[48] for BRET² assays), GPR55 binding pocket mutants (G152^4.56F, G152^4.56W, N171^ECL2Q, N171^ECL2A, T176^5.33A, R253^6.62A), and the wt TBXA2R were codon-optimized for Homo sapiens, gene-synthesized, and sub-cloned into pcDNA^TM3.1(+) between NheI and HindIII restriction sites by GeneArt (Thermo Fisher Scientific). […] Freshly grown cells were washed with Dulbecco’s Balanced Salt Solution (DPBS, cat. #14200075) and detached using trypsin-ethylenediaminetetraacetic acid (trypsin-EDTA) (cat. #25300-062). Then, the cells were reconstituted to 500,000 cells per mL with fresh medium, and 1,000,000 cells were seeded into each well of a 6-well plate. After 3 h incubation at 37 °C and 5% CO2, adherent cells were transfected with 600 ng DNA (1:1:1:1 ratio of plasmid DNA for GPR55, wt Gβ3, Gγ9-GFP, and Gα12-Rluc8 or Gα13-Rluc8). Plasmid DNA was mixed with 1.5 µL Lipofectamine^TM 2000 (cat. #11668027) in Opti-MEM^TM medium (cat. #31985062) and incubated for 20 min. Then, the mixture was added to each well of the 6-well plate following 24 h incubation at 37 °C and 5% CO2. Transfected cells were washed with DPBS, detached using EDTA (Versene, cat. #15040066), and reconstituted into fresh medium at 500,000 cells mL^−1. From this suspension, 50,000 cells were seeded into each well of a white-bottom 96-well plate (Nunc^TM MicroWell^TM 96 wells, cat. #136101) following overnight incubation at 37 °C and 5% CO2. Then, the adherent cells were washed with assay medium [Hank’s balanced salt solution (HBSS, cat. #14065056) plus 20 mM HEPES pH 7.4 (cat. #15630056)] and finally reconstituted into 50 µL of the same medium. […] Methoxy e-Coelenterazine was used as luciferase substrate (Prolume Purple, NanoLight Technology, cat. #369), reconstituted at 1 mM in methanol and diluted to 37.5 µM with assay buffer (7.5 µM final assay concentration). The assay was started by the addition of 20 µL luciferase substrate to each well of the assay plate using a Multidrop^TM Combi reagent dispenser (Thermo Fisher Scientific), followed by 5 min incubation at room temperature. Then, 30 µL of agonist dilutions or DMSO control was added (final DMSO concentration 1.5%), followed by an additional 5 min incubation at room temperature. BRET² measurements were performed with a PHERAstar® FSX microplate reader (BMG LABTECH) using a BRET² filter (donor emission 370–450 nm, acceptor emission 500–530 nm) at the maximum fluorescence gain of 3600. BRET² ratios were calculated by dividing GFP emission signals from Rluc8 emission counts.

[2] = system: GPR55; design: method as in PMID 21534610; conditions: β-arrestin recruitment assays; read-out: reported potency; cited from earlier work
[3] = molecular target: wt GPR55 (Gα13 mutant H368Q) (Homo sapiens, UniProt Q9Y2T6); assay: BRET² G protein dissociation assay, wt GPR55 with Gα13-H368Q; assay type: cell-based; conditions: for BRET2 response, Mean (plotted, Fig. S4): GPR55-wt-G13-H368Q
wt GPR55 (Gα13 mutant H368Q), sequence (Q9Y2T6 whole entry, stated change not applied): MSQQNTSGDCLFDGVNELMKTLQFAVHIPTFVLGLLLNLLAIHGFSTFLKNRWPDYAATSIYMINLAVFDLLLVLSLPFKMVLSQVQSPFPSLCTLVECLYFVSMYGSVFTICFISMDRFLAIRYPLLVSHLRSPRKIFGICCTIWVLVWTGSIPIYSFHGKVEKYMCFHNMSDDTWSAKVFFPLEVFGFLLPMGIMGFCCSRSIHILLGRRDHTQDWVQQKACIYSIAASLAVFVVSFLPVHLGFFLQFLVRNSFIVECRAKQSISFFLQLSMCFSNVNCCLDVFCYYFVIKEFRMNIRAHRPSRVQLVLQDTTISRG
wt GPR55 (Gα13 mutant H368Q), sequence (Q14344 with tags, fused parts or gaps H368Q partner): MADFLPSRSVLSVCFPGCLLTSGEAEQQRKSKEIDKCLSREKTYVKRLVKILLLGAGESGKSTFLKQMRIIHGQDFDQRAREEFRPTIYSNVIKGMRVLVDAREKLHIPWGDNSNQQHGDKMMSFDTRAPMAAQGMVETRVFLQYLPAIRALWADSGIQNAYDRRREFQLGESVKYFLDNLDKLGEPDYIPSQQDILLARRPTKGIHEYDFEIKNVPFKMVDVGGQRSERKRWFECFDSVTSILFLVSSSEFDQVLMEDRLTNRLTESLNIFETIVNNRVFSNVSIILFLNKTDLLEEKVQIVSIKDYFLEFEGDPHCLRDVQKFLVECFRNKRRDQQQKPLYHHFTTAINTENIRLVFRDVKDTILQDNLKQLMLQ
wt GPR55 (Gα13 mutant H368Q), sequence (P16520 whole entry partner): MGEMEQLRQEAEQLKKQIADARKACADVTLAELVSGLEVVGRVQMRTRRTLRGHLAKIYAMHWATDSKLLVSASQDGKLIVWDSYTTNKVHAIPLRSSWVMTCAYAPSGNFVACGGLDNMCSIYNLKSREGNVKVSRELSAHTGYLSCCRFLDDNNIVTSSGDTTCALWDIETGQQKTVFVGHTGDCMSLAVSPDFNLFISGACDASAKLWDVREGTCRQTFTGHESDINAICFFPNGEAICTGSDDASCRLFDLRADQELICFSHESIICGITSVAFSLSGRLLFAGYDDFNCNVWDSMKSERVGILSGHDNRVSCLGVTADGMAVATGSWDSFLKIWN
wt GPR55 (Gα13 mutant H368Q), sequence (O14610 1-66 partner limits assumed): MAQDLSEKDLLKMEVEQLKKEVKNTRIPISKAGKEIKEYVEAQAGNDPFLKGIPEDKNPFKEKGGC
Experimental: as §1, §2

[4] = molecular target: wt GPR55 (Gα13 mutant R331D) (Homo sapiens, UniProt Q9Y2T6); assay: BRET² G protein dissociation assay, wt GPR55 with Gα13-R331D; assay type: cell-based; conditions: for BRET2 response, Mean (plotted, Fig. S4): GPR55-wt-G13-R331D
wt GPR55 (Gα13 mutant R331D), sequence (Q9Y2T6 whole entry, stated change not applied): as the sequence (Q9Y2T6 whole entry, stated change not applied) above
wt GPR55 (Gα13 mutant R331D), sequence (Q14344 whole entry R331D partner): as the sequence (Q14344 with tags, fused parts or gaps H368Q partner) above, with R331D, Q368H counted along it
wt GPR55 (Gα13 mutant R331D), sequence (P16520 whole entry partner): as the sequence (P16520 whole entry partner) above
wt GPR55 (Gα13 mutant R331D), sequence (O14610 1-66 partner limits assumed): as the sequence (O14610 1-66 partner limits assumed) above
Experimental: as §1, §2

[5] = molecular target: wt GPR55 (Gα13 mutant L374I) (Homo sapiens, UniProt Q9Y2T6); assay: BRET² G protein dissociation assay, wt GPR55 with Gα13-L374I; assay type: cell-based; conditions: for BRET2 response, Mean (plotted, Fig. S4): GPR55-wt-G13-L374I
wt GPR55 (Gα13 mutant L374I), sequence (Q9Y2T6 whole entry, stated change not applied): as the sequence (Q9Y2T6 whole entry, stated change not applied) above
wt GPR55 (Gα13 mutant L374I), sequence (Q14344 with tags, fused parts or gaps L374I partner): as the sequence (Q14344 with tags, fused parts or gaps H368Q partner) above, with Q368H, L374I counted along it
wt GPR55 (Gα13 mutant L374I), sequence (P16520 whole entry partner): as the sequence (P16520 whole entry partner) above
wt GPR55 (Gα13 mutant L374I), sequence (O14610 1-66 partner limits assumed): as the sequence (O14610 1-66 partner limits assumed) above
Experimental: as §1, §2

wt GPR55 (Gα13 mutant Q373D), sequence (Q9Y2T6 whole entry, stated change not applied): as the sequence (Q9Y2T6 whole entry, stated change not applied) above
wt GPR55 (Gα13 mutant Q373D), sequence (Q14344 with tags, fused parts or gaps Q373D partner): as the sequence (Q14344 with tags, fused parts or gaps H368Q partner) above, with Q368H, Q373D counted along it
wt GPR55 (Gα13 mutant Q373D), sequence (P16520 whole entry partner): as the sequence (P16520 whole entry partner) above
wt GPR55 (Gα13 mutant Q373D), sequence (O14610 1-66 partner limits assumed): as the sequence (O14610 1-66 partner limits assumed) above

## Cc1cccc(N2CCN(C(=O)c3cc(S(=O)(=O)N(C)C)ccc3N3CCCC3)CC2)c1C [ML184, 3-[[4-(2,3-dimethylphenyl)-1-piperazinyl]carbonyl]-N,N-dimethyl-4-(1-pyrrolidinyl)benzenesulfonamide]
[1]; concentration 300 pM
  BRET2 response, Mean (plotted, Fig. S4): -0.0016
[1]; concentration 1e-9 M
  BRET2 response, Mean (plotted, Fig. S4): -0.008467
[1]; concentration 3e-9 M
  BRET2 response, Mean (plotted, Fig. S4): -0.01797
[1]; concentration 1e-8 M
  BRET2 response, Mean (plotted, Fig. S4): -0.03595
[1]; concentration 3e-8 M
  BRET2 response, Mean (plotted, Fig. S4): -0.05377
[1]; concentration 1e-7 M
  BRET2 response, Mean (plotted, Fig. S4): -0.06678
[1]; concentration 3e-7 M
  BRET2 response, Mean (plotted, Fig. S4): -0.07328
[1]; concentration 1e-6 M
  BRET2 response, Mean (plotted, Fig. S4): -0.07808
[1]; concentration 3e-6 M
  BRET2 response, Mean (plotted, Fig. S4): -0.08238
[1]; concentration 1e-5 M
  BRET2 response, Mean (plotted, Fig. S4): -0.08622
[1]; concentration 3e-5 M
  BRET2 response, Mean (plotted, Fig. S4): -0.08798
[1]; wt GPR55, Gα13-Q373D
  EC50: 17 nM
[1]; wt GPR55, Gα13-Q373D, 30 µM ligand, same normalization, read-out: Efficacy ± SEM (%)
  Emax at 30 µM: 94 ± 7%
[2]
  EC50: 260 nM
[3]; concentration 300 pM
  BRET2 response, Mean (plotted, Fig. S4): -0.005683
[3]; concentration 1e-9 M
  BRET2 response, Mean (plotted, Fig. S4): -0.005417
[3]; concentration 3e-9 M
  BRET2 response, Mean (plotted, Fig. S4): -0.01235
[3]; concentration 1e-8 M
  BRET2 response, Mean (plotted, Fig. S4): -0.02205
[3]; concentration 3e-8 M
  BRET2 response, Mean (plotted, Fig. S4): -0.02877
[3]; concentration 1e-7 M
  BRET2 response, Mean (plotted, Fig. S4): -0.03593
[3]; concentration 3e-7 M
  BRET2 response, Mean (plotted, Fig. S4): -0.04192
[3]; concentration 1e-6 M
  BRET2 response, Mean (plotted, Fig. S4): -0.04487
[3]; concentration 3e-6 M
  BRET2 response, Mean (plotted, Fig. S4): -0.0483
[3]; concentration 1e-5 M
  BRET2 response, Mean (plotted, Fig. S4): -0.05252
[3]; concentration 3e-5 M
  BRET2 response, Mean (plotted, Fig. S4): -0.05477
[3]; wt GPR55, Gα13-H368Q
  EC50: 29.5 nM
[3]; wt GPR55, Gα13-H368Q, 30 µM ligand, same normalization, read-out: Efficacy ± SEM (%)
  Emax at 30 µM: 101 ± 4%
[4]; concentration 300 pM
  BRET2 response, Mean (plotted, Fig. S4): -0.00035
[4]; concentration 1e-9 M
  BRET2 response, Mean (plotted, Fig. S4): -0.0002667
[4]; concentration 3e-9 M
  BRET2 response, Mean (plotted, Fig. S4): -0.009133
[4]; concentration 1e-8 M
  BRET2 response, Mean (plotted, Fig. S4): -0.02147
[4]; concentration 3e-8 M
  BRET2 response, Mean (plotted, Fig. S4): -0.04232
[4]; concentration 1e-7 M
  BRET2 response, Mean (plotted, Fig. S4): -0.06272
[4]; concentration 3e-7 M
  BRET2 response, Mean (plotted, Fig. S4): -0.07305
[4]; concentration 1e-6 M
  BRET2 response, Mean (plotted, Fig. S4): -0.07957
[4]; concentration 3e-6 M
  BRET2 response, Mean (plotted, Fig. S4): -0.0831
[4]; concentration 1e-5 M
  BRET2 response, Mean (plotted, Fig. S4): -0.08698
[4]; concentration 3e-5 M
  BRET2 response, Mean (plotted, Fig. S4): -0.08977
[4]; wt GPR55, Gα13-R331D
  EC50: 33.9 nM
[4]; wt GPR55, Gα13-R331D, 30 µM ligand, same normalization, read-out: Efficacy ± SEM (%)
  Emax at 30 µM: 89 ± 3%
[5]; concentration 300 pM
  BRET2 response, Mean (plotted, Fig. S4): -0.00585
[5]; concentration 1e-9 M
  BRET2 response, Mean (plotted, Fig. S4): -0.001933
[5]; concentration 3e-9 M
  BRET2 response, Mean (plotted, Fig. S4): -0.00955
[5]; concentration 1e-8 M
  BRET2 response, Mean (plotted, Fig. S4): -0.02387
[5]; concentration 3e-8 M
  BRET2 response, Mean (plotted, Fig. S4): -0.04258
[5]; concentration 1e-7 M
  BRET2 response, Mean (plotted, Fig. S4): -0.06613
[5]; concentration 3e-7 M
  BRET2 response, Mean (plotted, Fig. S4): -0.07745
[5]; concentration 1e-6 M
  BRET2 response, Mean (plotted, Fig. S4): -0.0833
[5]; concentration 3e-6 M
  BRET2 response, Mean (plotted, Fig. S4): -0.08843
[5]; concentration 1e-5 M
  BRET2 response, Mean (plotted, Fig. S4): -0.09448
[5]; concentration 3e-5 M
  BRET2 response, Mean (plotted, Fig. S4): -0.09637
[5]; wt GPR55, Gα13-L374I
  EC50: 36.3 nM
[5]; wt GPR55, Gα13-L374I, 30 µM ligand, same normalization, read-out: Efficacy ± SEM (%)
  Emax at 30 µM: 84 ± 1%
